Measurements as given in patent US20100298141A1, “SUBSTITUTED PYRIDINE N-OXIDE HERBICIDES” (E. I. DU PONT DE NEMOURS AND COMPANY, priority 2007, published 2010).

Key:
Assay in all cases: Test F preemergence test
Conditions in all cases: scale 0 to 100
[1] = tested on: bermudagrass; format: in vivo, Cynodon dactylon
Procedure, shortened: (§1)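 Compounds in a non-phytotoxic solvent formulation with surfactant were applied before emergence after sowing, or, for sugarcane, also postemergence. Evaluation was visual, against controls, after 14 to 21 greenhouse days.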

[2] = tested on: Surinam grass; format: in vivo, Brachiaria decumbens
Procedure, shortened: as §1

[3] = tested on: large crabgrass; format: in vivo, Digitaria sanguinalis
Procedure, shortened: as §1

[4] = tested on: green foxtail; format: in vivo, Setaria viridis
Procedure, shortened: as §1

[5] = tested on: pitted morningglory; format: in vivo, Ipomoea lacunosa
Procedure, shortened: as §1

[6] = tested on: mustard; format: in vivo, Brassica nigra
Procedure, shortened: as §1

[7] = tested on: guineagrass; format: in vivo, Panicum maximum
Procedure, shortened: as §1

[8] = tested on: barnyardgrass; format: in vivo, Echinochloa crus-galli
Procedure, shortened: as §1

[9] = tested on: southern sandbur; format: in vivo, Cenchrus echinatus
Procedure, shortened: as §1

[10] = tested on: prickly sida; format: in vivo, Sida spinosa
Procedure, shortened: as §1

[11] = tested on: Italian ryegrass; format: in vivo, Lolium multiflorum
Procedure, shortened: as §1

[12] = tested on: common purslane; format: in vivo, Portulaca oleracea
Procedure, shortened: as §1

[13] = tested on: common chickweed; format: in vivo, Stellaria media
Excerpt: Seeds of plant species selected from bermudagrass (Cynodon dactylon), Surinam grass (Brachiaria decumbens), large crabgrass (Digitaria sanguinalis), green foxtail (Setaria viridis), goosegrass (Eleusine indica), johnsongrass (Sorghum halepense), kochia (Kochia scoparia), pitted morningglory (Ipomoea lacunosa), purple nutsedge (Cyperus rotundus), common ragweed (Ambrosia elation), mustard (Brassica nigra), guineagrass (Panicum maximum), […] (Paspalum dilatatum), barnyardgrass (Echinochloa crus-galli), southern sandbur (Cenchrus echinatus), common sowthistle (Sonchus oleraceous), prickly […] spinosa), Italian ryegrass (Lolium multiflorum), common purslane (Portulaca oleracea), broadleaf signalgrass (Brachiaria platyphylla), common groundsel (Senecio vulgaris), common chickweed (Stellaria media), Virginia dayflower (Commelina virginica), annual bluegrass (Poa annua), naked crabgrass (Digitaria nuda), […] cochinchinensis), quackgrass (Elytrigia repens), Canada horseweed (Conyza canadensis), field bindweed (Convolvulus arvensis), […] (Bidens bipinnata), common mallow (Malva sylvestris), Russian thistle (Salsola kali), and sugarcane (Saccharum officinarum) were planted and treated preemergence with test chemicals formulated in a non-phytotoxic solvent mixture which included a surfactant. At a different time, sugarcane was treated with postemergence applications of some of the test chemicals formulated in the same manner. Plants were approximately 3- to 4-leaf stage for the postemergence treatments. Treated plants and controls were maintained in a greenhouse for 14 to 21 days, after which time all species were compared to controls and visually evaluated. […] A dash (-) response means no test result.

[14] = tested on: annual bluegrass; format: in vivo, Poa annua
Procedure, shortened: as §1

[15] = tested on: naked crabgrass; format: in vivo, Digitaria nuda
Procedure, shortened: as §1

[16] = tested on: quackgrass; format: in vivo, Elytrigia repens
Procedure, shortened: as §1

[17] = tested on: field bindweed; format: in vivo, Convolvulus arvensis
Procedure, shortened: as §1

[18] = tested on: common mallow; format: in vivo, Malva sylvestris
Procedure, shortened: as §1

## Cc1cc[n+]([O-])c([S+]([O-])Cc2c(C(F)(F)F)nn(C)c2OC(F)F)c1 (stereo not drawn) [Compound 1]
[1]; 8 g ai/ha, preemergence
  Plant response rating, Bermudagrass: 0
[1]; 62 g ai/ha, Preemergence
  Bermudagrass plant response rating: 80
[1]; Preemergence, 16 g ai/ha
  Plant response rating, Bermudagrass: 40
[1]; Preemergence, 31 g ai/ha
  Plant response rating, Bermudagrass: 40
[2]; 8 g ai/ha, preemergence
  Plant response rating, Surinam Grass: 0
[2]; 16 g ai/ha, preemergence
  Plant response rating, Surinam Grass: 0
[2]; 62 g ai/ha, Preemergence
  Surinam Grass plant response rating: 90
[2]; Preemergence, 31 g ai/ha
  Plant response rating, Surinam Grass: 0
[3]; 8 g ai/ha, preemergence
  Plant response rating, Crabgrass, Large: 0
[3]; 62 g ai/ha, Preemergence
  Crabgrass, Large plant response rating: 95
[3]; Preemergence, 16 g ai/ha
  Plant response rating, Crabgrass, Large: 20
[3]; Preemergence, 31 g ai/ha
  Plant response rating, Crabgrass, Large: 70
[4]; 8 g ai/ha, preemergence
  Plant response rating, Foxtail, Green: 0
[4]; 62 g ai/ha, Preemergence
  Foxtail, Green plant response rating: 100
[4]; Preemergence, 16 g ai/ha
  Plant response rating, Foxtail, Green: 60
[4]; Preemergence, 31 g ai/ha
  Plant response rating, Foxtail, Green: 80
[5]; 8 g ai/ha, preemergence
  Plant response rating, Morningglory: 0
[5]; 62 g ai/ha, Preemergence
  Morningglory plant response rating: 95
[5]; Preemergence, 16 g ai/ha
  Plant response rating, Morningglory: 10
[5]; Preemergence, 31 g ai/ha
  Plant response rating, Morningglory: 75
[6]; 8 g ai/ha, preemergence
  Plant response rating, Black Mustard: 0
[6]; 62 g ai/ha, Preemergence
  Black Mustard plant response rating: 100
[6]; Preemergence, 16 g ai/ha
  Plant response rating, Black Mustard: 0
[6]; Preemergence, 31 g ai/ha
  Plant response rating, Black Mustard: 80
[7]; 8 g ai/ha, preemergence
  Plant response rating, Guineagrass: 65
[7]; 62 g ai/ha, Preemergence
  Guineagrass plant response rating: 100
[7]; Preemergence, 16 g ai/ha
  Plant response rating, Guineagrass: 80
[7]; Preemergence, 31 g ai/ha
  Plant response rating, Guineagrass: 80
[8]; 8 g ai/ha, preemergence
  Plant response rating, Barnyardgrass: 5
[8]; 62 g ai/ha, Preemergence
  Barnyardgrass plant response rating: 90
[8]; Preemergence, 16 g ai/ha
  Plant response rating, Barnyardgrass: 60
[8]; Preemergence, 31 g ai/ha
  Plant response rating, Barnyardgrass: 80
[9]; 8 g ai/ha, preemergence
  Plant response rating, Sandbur: 0
[9]; 16 g ai/ha, preemergence
  Plant response rating, Sandbur: 30
[9]; 62 g ai/ha, Preemergence
  Sandbur plant response rating: 80
[9]; Preemergence, 31 g ai/ha
  Plant response rating, Sandbur: 60
[10]; 8 g ai/ha, preemergence
  Plant response rating, Prickly Sida: 0
[10]; 62 g ai/ha, Preemergence
  Prickly Sida plant response rating: 80
[10]; Preemergence, 16 g ai/ha
  Plant response rating, Prickly Sida: 20
[10]; Preemergence, 31 g ai/ha
  Plant response rating, Prickly Sida: 60
[11]; 8 g ai/ha, preemergence
  Plant response rating, Ryegrass, Italian: 0
[11]; 62 g ai/ha, Preemergence
  Ryegrass, Italian plant response rating: 90
[11]; Preemergence, 16 g ai/ha
  Plant response rating, Ryegrass, Italian: 0
[11]; Preemergence, 31 g ai/ha
  Plant response rating, Ryegrass, Italian: 60
[12]; 8 g ai/ha, preemergence
  Plant response rating, Purslane: 0
[12]; 62 g ai/ha, Preemergence
  Purslane plant response rating: 80
[12]; Preemergence, 16 g ai/ha
  Plant response rating, Purslane: 35
[12]; Preemergence, 31 g ai/ha
  Plant response rating, Purslane: 60
[13]; 8 g ai/ha, preemergence
  Plant response rating, Chickweed: 40
[13]; 62 g ai/ha, Preemergence
  Chickweed plant response rating: 100
[13]; Preemergence, 16 g ai/ha
  Plant response rating, Chickweed: 60
[13]; Preemergence, 31 g ai/ha
  Plant response rating, Chickweed: 98
[14]; 8 g ai/ha, preemergence
  Plant response rating, Bluegrass: 0
[14]; 62 g ai/ha, Preemergence
  Bluegrass plant response rating: 75
[14]; Preemergence, 16 g ai/ha
  Plant response rating, Bluegrass: 0
[14]; Preemergence, 31 g ai/ha
  Plant response rating, Bluegrass: 25
[15]; 8 g ai/ha, preemergence
  Plant response rating, Crabgrass, Naked: 0
[15]; 62 g ai/ha, Preemergence
  Crabgrass, Naked plant response rating: 100
[15]; Preemergence, 16 g ai/ha
  Plant response rating, Crabgrass, Naked: 15
[15]; Preemergence, 31 g ai/ha
  Plant response rating, Crabgrass, Naked: 90
[16]; 8 g ai/ha, preemergence
  Plant response rating, Quackgrass: 0
[16]; 62 g ai/ha, Preemergence
  Quackgrass plant response rating: 65
[16]; Preemergence, 16 g ai/ha
  Plant response rating, Quackgrass: 35
[16]; Preemergence, 31 g ai/ha
  Plant response rating, Quackgrass: 50
[17]; 8 g ai/ha, preemergence
  Plant response rating, Field Bindweed: 0
[17]; 62 g ai/ha, Preemergence
  Field Bindweed plant response rating: 75
[17]; Preemergence, 16 g ai/ha
  Plant response rating, Field Bindweed: 0
[17]; Preemergence, 31 g ai/ha
  Plant response rating, Field Bindweed: 50
[18]; 8 g ai/ha, preemergence
  Plant response rating, Mallow: 0
[18]; 62 g ai/ha, Preemergence
  Mallow plant response rating: 100
[18]; Preemergence, 16 g ai/ha
  Plant response rating, Mallow: 0
[18]; Preemergence, 31 g ai/ha
  Plant response rating, Mallow: 70
